From patent US20080194470A1, “Nim811 In Cerebral Ischemia and Brain and Spinal Cord Injury” (Novartis AG, priority 2004, published 2008)

System: isolated rodent brain-derived mitochondria
Conditions: under energized and de-energized conditions; comparable to the effects of cyclosporine A
Excerpt: Spinal cord injury model (in vivo) • Adult Lewis rats are injured microsurgically by transecting the dorsal half of the spinal cord bilaterally at the level of the eighth thoracic vertebra. Laminectomy, anesthesia and surgery are described in Schnell and Schwab, Eur J Neurosci, Vol. 5, pp. 1156-1171 (1993). […] Tamura et al., J Cereb Blood Flow Metabol, Vol. 1, pp. 53-60 (1981); and Sauter and Rudin, Stroke, Vol. 17, pp. 1228-1234 (1986)]. • 3. Inhibition of mitochondrial permeability transition in isolated rodent brain-derived mitochondria and prevention of cell death in an in vitro model of ischemic brain damage, e.g. as described in Rytter et al., JCBF, Vol. 23, pp. 23-33.

Substance | inhibition of calcium-induced mitochondrial swelling
[Melle]^4-Ciclosporin | inhibitors of calcium-induced mitochondrial swelling
[γ-hydroxy-MeLeu]^4-Ciclosporin | inhibitors of calcium-induced mitochondrial swelling
